{
  "source": "patent US20200268864A1",
  "about": "“CANCER VACCINE COMPOSITIONS AND METHODS FOR USING SAME TO TREAT CANCER” (Dana-Farber Cancer Institute, Inc., priority 2017, published 2020)",
  "key": {"[1]": {"tested_on": "Brca1-proficient and Brca1-deficient tumor cells", "assay": "Measurement of IC50 value in tumor cells (MTS, 72 h)", "type": "cell-based", "conditions": "three pairs of models; for gemcitabine except PPM and PBM cells", "protocol": "Tumor cells were seeded in 96-well plates at a density of 1000-3000/well and allowed to adhere overnight. Cells were then exposed to appropriate concentrations of therapeutic agents (or vehicle control) with continuous exposure for 72 h. Growth inhibition was measured by CellTiter Aqueous MTS reagent from Promega by comparing the absorbance at 490 nm of drug-treated cells to that of untreated controls set at 100%. 1C50 values were calculated using non-linear regression model (logarithmic inhibitor vs. normalized response-variable slope) in Graphpad Prism 7."}, "[2]": {"tested_on": "STING pathway in BMDCs co-cultured with PBM cells", "assay": "Co-culture of BMDCs with olaparib-treated PBM tumor cells", "type": "cell-based, mouse", "protocol": "(§1) Blood was obtained by retro-orbital sampling at intermediate time points or experimental end points. Blood cells and plasma/sera were separated by centrifugation at 1,500×g for 5 min. at 4° C. Plasmaisera were sent out to Eve Technologies for cytokine array analysis (Chemokine Array 31-Plex and Mouse Procarta IFN 2-plex Featured Assay). Plasma/sera were applied to ELISA according to manufacturer's instructions. For in vitro experiments, cell culture supernatants were obtained by centrifugation at 1,500×g for 5 min. at 4° C. to remove all debris and cells, and were then subjected to ELISA analysis. IFN-β was detected using the LEGEND MAX™ Mouse IFN-β ELISA Kit (BioLegend).\nBone marrow cells were isolated from FVB/NJ mice and cultured in RPMI-1640 containing 10% FBS and 20 ng/ml GM-CSF. BMDCs (bone marrow derived dendritic cells) were harvested for in vitro co-culture assay on day 7 to day 10. About 3×10^5 PBM or PPM tumor cells were cultured in a 6-well plate for 24 hr. and then treated with DMSO or olaparib. After 24 hr incubation with DMSO, olaparib, or olaparib in combination with other drugs (cell cycle inhibitor or apoptosis inhibitor), drugs were removed and tumor cells were washed twice with PBS. BMDCs were added and co-cultured with PBM or PPM cells at a ratio of 1:1 in 1.5 ml culture media in the presence of GM-CSF (20 ng/ml) and lipofectamine (2 μl) for 24 hr. Co-cultured cells were harvested for flow cytometry analysis and floating cells (percentage of BMDCs is about 90%), or RNA analysis. Cell culture supernatants were collected for detection of IFN-β with the ELISA kit. BMDCs generated from C57BL/6J mice were applied for the coculture of BMDCs with ID8 tumor cells. Human dendritic cells purchased from Lonza were used for the coculture of human DCs with DMSO or olaparib-treated human ovarian cancer cells ([…] and UWB1.289+BRCA1).\n(§2) About 50 to 100 mg of tumor samples were homogenized in 1 ml of TRIzol™ Reagent supplied with 200 μl of stainless steel beads and 0.2 ml of chloroform was added to the samples. Samples were vortexed vigorously for 15 seconds and then incubated at room temperature for 2 to 3 minutes. After centrifugation at 12,000×g for 15 minutes at 4° C., upper aqueous phase of the samples was carefully removed to a new tube and the total RNA was purified using an RNeasy® Mini Kit (Qiagen) according to manufactory's instruction. For the in vitro cultured cell samples, total RNA was isolated using an RNeasy® Mini Kit. The qPCR was performed on an Applied Biosystems 7300 machine after the total RNA was reverse transcribed to cDNA using the SuperScript® III First-Strand Synthesis System (Invitrogen). Primers used for qPCR were as follows: […]"}, "[3]": {"tested_on": "PBM tumors (Trp53−/−; Brca1−/−; c-Myc)", "assay": "Orthotopic PBM tumor allograft growth and survival (bioluminescence)", "type": "in vivo, mouse", "conditions": "PBM tumors; agent given together with olaparib", "protocol": "All animal experiments described in this study were performed according to the animal protocols approved by the DFCI Institutional Animal Care and Use Committee. Brca1^loxP/loxP [FVB/N] mice, bearing loxP sites in introns 4 and 13 of the Brca1 gene, and Trp53^loxP/loxP[FVB/N] mice bearing loxP in introns 2 and 10 of the p53 gene, were obtained from Dr. Jos Jonkers's laboratory (Netherlands Cancer Institute, Amsterdam, The Netherlands). These mice were intercrossed through multiple generations to create a colony of homozygous Trp53^loxP/loxP/Brca1^loxP/loxP double conditional knockout mice. Ovaries were harvested from 8-week-old female Trp53^loxP/loxP/Brca1^loxP/loxP mice. The ovaries were washed twice with phosphate-buffered and incubated in DMEM/F12 (Ham's) medium containing collagenase and dispase (stem cell technologies) for 40 min at 37° C. The epithelial cells were pelleted by centrifugation at 800×g and cultured in DMEM/F12 (Life Technologies) supplemented with 4% (vol/vol) FBS, 1% penicillin/streptomycin, 10 ng/mL EGF, 5 μg/mL insulin, 5 Cpg/mL transferrin, and 5 ng/mL sodium selenite. Ovarian surface epithelial (OSE) cells were cultured for 48 hr and then introduced with Adeno-Cre (University of Iowa) and lentiviruses expressing C-Myc gene (Addgene #36980) or control GFP. After two days of infection in vitro, OSE cells are aggregated and implanted into recipient mice. About 5×10^5 OSE cells (Trp53^−/−; Brca1^−/−; c-Myc) were injected into the right ovarian bursal cavities of 6- to 7-week-old female nude mice. In each mouse, the left ovarian bursa was injected with GFP-expressing OSE cells (Trp53^−/−; Brca1^−/−; GFP). PBM (Trp53^−/−; Brca1^−/−; c-Myc) ovarian tumors developed within three to six months after implantation of the genetically engineered OSE cells. The primary ovarian tumors were digested and orthotopically transplanted to FVB/NJ mice. The PPM GEM model (Trp53^−/−; Pten^−/−; c-Myc) was developed with OSE cells isolated from homozygous Trp53^loxP/loxP/Pten^loxP/loxP(FVB/NJ) double conditional knockout mice using the same strategy for generation of the PBM GEM model described above. For histological analysis, tumor pieces were fixed in 10% Formalin overnight and transferred to 70% ethanol. Embedding, sectioning and H&E staining was performed by scientists at the Harvard rodent histopathology core facility. The histological characteristics of high grade ovarian tumor were confirmed by two independent pathologists at Harvard Medical School.\nSingle cells were obtained by digestion of primary ovarian tumors in collagenase buffer and then cultured in MOT media (DMEM/F12, 0.6% FBS, 10 ng/ml EGF, hydrocortisone 1 μg/ml, cholera toxin 1 ng/ml, 100 μg/ml penicillin-streptomycin, 5 μM Y27632). […] The endpoints were determined by tumor burden and ascites. […]"}, "STING signaling in BMDCs": {"tested_on": "STING signaling in BMDCs", "assay": "BMDCs stimulated with STING agonist DMXAA", "type": "cell-based, mouse", "protocol": "as §1, §2"}, "[4]": {"tested_on": "STING pathway in BMDCs co-cultured with ID8 cells", "assay": "Co-culture of BMDCs with drug-treated WT or Brca1-null ID8 cells", "type": "cell-based, mouse", "conditions": "co-cultured with both Brca1-deficient and Brca1 proficient ID8 cells", "protocol": "Brca-1 deficient ID8 cells were generated using a CRISPR double nickase plasmid. ID8 cells cultured in a 6-well plate were transfected with 2 μg/well of BRCA1 double nickase plasmid (sc419362-NIC, Santa Cruz Biotechnology) or control double nickase plasmid (SC-437281, Santa Cruz Biotechnology) using lipofectamine 3000 (Invitrogen). 48 hrs post-transfection, cells were passaged onto a 10 cm plate. After 24 h, puromycin (3 μg/mL) was added to the culture for selection. Puromycin resistant cells were selected and expanded. Due to a lack of a reliable mouse BRCA1 antibody for Western blot, cells were analyzed by DNA sequencing to confirm the disruption of functional Brca1 allele. To generate ID8 tumors, cultured ID8 cells were harvested and resuspended in serum free DMEM. Cells were then mixed with Matrigel (Corning). A total volume of 0.1 ml containing 5×10^6 ID8 cells and 40% Matrigel were injected subcutaneously into the flank of C57BL/6J mice.\nBone marrow cells were isolated from FVB/NJ mice and cultured in RPMI-1640 containing 10% FBS and 20 ng/ml GM-CSF. BMDCs (bone marrow derived dendritic cells) were harvested for in vitro co-culture assay on day 7 to day 10. About 3×10^5 PBM or PPM tumor cells were cultured in a 6-well plate for 24 hr. and then treated with DMSO or olaparib. […]"}},
  "note": "“Also recorded” adds a separate entry of the source. Residues, ends and D or L forms follow the SMILES beside them. *: point of attachment. Cbz = O=C(OCc1ccccc1)*; CH2F = FC*",
  "data": [
    {"smiles": "Cn1ncnc1[C@H]1c2n[nH]c(=O)c3cc(F)cc(c23)N[C@@H]1c1ccc(F)cc1", "note": "[talazoparib]", "values": [
      {"measurement": "IC50 values, Brca1-deficient lines in comparison to Brca1-proficient counterparts", "setting": "[1]", "result": "much more sensitive"}
    ]},
    {"smiles": "Nc1ccn([C@@H]2O[C@H](CO)[C@@H](O)C2(F)F)c(=O)n1", "note": "[gemcitabine]", "values": [
      {"measurement": "IC50 values, Brca1-deficient lines in comparison to Brca1-proficient counterparts", "setting": "[1]", "result": "no substantial differences"}
    ]},
    {"smiles": "CC(NC(=O)C(NC(=O)OCc1ccccc1)C(C)C)C(=O)NC(CC(=O)O)C(=O)CF", "note": "(stereo not drawn) [zVAD] (Cbz-Val-Ala-Asp-CH2F; configuration not given here)", "values": [
      {"measurement": "effect of apoptosis inhibitor on activation of DCs co-cultured with olaparib-treated PBM cells", "setting": "[2]; zVAD 10 μM with olaparib 2.5 μM, 24 h pre-treatment", "result": "little effect"}
    ]},
    {"smiles": "O=C(NCCCNc1nc(Nc2cccc(NC(=O)N3CCCC3)c2)ncc1I)c1cccs1", "note": "[BX795]", "values": [
      {"measurement": "effect of added agent on olaparib-induced tumor inhibition / antitumor activity of olaparib", "setting": "[3]", "result": "blocked the anti-tumor activity of olaparib; also recorded: attenuated"},
      {"measurement": "effect on olaparib-induced IFNβ/CXCL10 expression and STING activation in co-cultured DCs", "setting": "[2]; agent added to the co-culture", "result": "abrogated"},
      {"measurement": "effect on olaparib-induced phosphorylation of TBK1 in CD11c dendritic cells", "setting": "[2]; agent added to the co-culture", "result": "reduced"},
      {"measurement": "effect on DMXAA-induced IFN-β production from BMDCs", "setting": "STING signaling in BMDCs; BX795 2 μM, 2 h", "result": "abolished"}
    ]},
    {"smiles": "CC(=O)O[C@H]1C(=O)[C@@]2(C)[C@H]([C@H](OC(=O)c3ccccc3)[C@]3(O)C[C@H](OC(=O)[C@H](O)[C@@H](NC(=O)c4ccccc4)c4ccccc4)C(C)=C1C3(C)C)[C@]1(OC(C)=O)CO[C@@H]1C[C@@H]2O", "note": "[paclitaxel]", "values": [
      {"measurement": "phosphorylation of TBK1 and IRF3 in BMDCs", "setting": "[4]", "result": "increased"},
      {"measurement": "IC50 values, Brca1-deficient lines in comparison to Brca1-proficient counterparts", "setting": "[1]", "result": "no substantial differences"}
    ]},
    {"smiles": "Cc1ccc2c(=O)c3cccc(CC(=O)O)c3oc2c1C", "note": "[DMXAA, 5,6-dimethylxanthenone-4-acetic acid]", "values": [
      {"measurement": "IFN-β production from BMDCs in culture", "setting": "STING signaling in BMDCs; DMXAA 5 μg/ml, 2 h", "result": "strong IFN-β production"},
      {"measurement": "STING signaling in BMDCs", "setting": "STING signaling in BMDCs; Western blot", "result": "activation of the STING signaling"}
    ]}
  ]
}
